For assay [1], the system named is Human Umbilical Vein Endothelial Cells (HUVEC). Put plainly: Acute NO release from HUVEC of white and black American donors, electrochemical nanosensors. As to conditions: for Acute NO Release, Black Donors NO: HUVEC from black American donors; for Acute NO Release, Black Donors NO / Acute NO Release, White Donors NO: acute treatment 1.0 μM, mean±S.D. (n=5); for Acute NO Release, White Donors NO: HUVEC from white donors; for Acute [NO]/[ONOO−] Release Ratio, Black Donors / Acute [NO]/[ONOO−] Release Ratio, White Donors: ratio of NO (Table 1) to ONOO− (Table 3); for NO release after acute treatment (in words): endothelial cells from both white and black American donors, 1.0 μM. It counts as cell-based. As to the method: The acute effects of nebivolol racemate, its separate enantiomers, and four stereoselective glucuronide metabolites on endothelial-dependent NO release were tested in Human Umbilical Vein Endothelial Cells (HUVEC). The tissue is isolated from normotensive white and black American donors with matched risk factor profiles. Production of NO is recorded using electrochemical nanosensors following acute treatment with the drugs at 1.0 μM (n=5).
The donors were between 20-25 years of age, with a mean body mass index (in kg/m^2), of 22.6±1.4 for white donors and 23.1±1.7 for black donors. The identification of race was defined by self report. For FIGS. 1-3, the HUvEC samples were obtained from American Type Culture Collection (Manassas, Va.).
The baseline is stabilized after about 20 seconds.
Nanosensors are prepared from carbon fibers.

Assay [2] concerns human endothelial cells. Put plainly: Acute ONOO− (peroxynitrite) release from human endothelial cells of white and black donors. It counts as cell-based. Particulars: acute treatment; for Acute ONOO− Release, Black Donors ONOO−: endothelial cells from black donors; for Acute ONOO− Release, White Donors ONOO−: endothelial cells from white donors; for ONOO− (peroxynitrite) release (in words): human endothelial cells. The source says:
The donors were between 20-25 years of age, with a mean body mass index (in kg/m^2), of 22.6±1.4 for white donors and 23.1±1.7 for black donors. The identification of race was defined by self report. For FIGS. 1-3, the HUvEC samples were obtained from American Type Culture Collection (Manassas, Va.). […] However, the amount of OONO^− produced for any of the metabolites was less than that observed for nebivolol. The ratio of NO to OONO^− produced by nebivolol and its glucuronide metabolites was similar following acute administration (Table 4).

Each structure is given as a SMILES string.

From US20070014734A1, “Glucuronidated nebivolol metabolites” (priority 2005, published 2007) come the findings set out here.

Regarding `O=C(O)C1OC(OC(CNCC(O)C2CCc3cc(F)ccc3O2)C2CCc3cc(F)ccc3O2)C(O)C(O)C1O` (single isomer, unassigned) [G-UDb, l-Nebivolol-11-O-β-D-glucuronide], in assay [1], the “Acute NO Release, Black Donors NO” value was determined as 139 ± 12 nM; the “Acute NO Release, White Donors NO” value was determined as 206 ± 12 nM; the “Acute [NO]/[ONOO−] Release Ratio, Black Donors” value stood at 0.618; the “Acute [NO]/[ONOO−] Release Ratio, White Donors” value is on record as 1.144. Besides, in assay [2], the “Acute ONOO− Release, Black Donors ONOO−” value is on record as 225 ± 16 nM; the “Acute ONOO− Release, White Donors ONOO−” value was 180 ± 13 nM; the “ONOO− (peroxynitrite) release (in words)” value is “greatest activity”.

Take `O[C@@H](CNC[C@H](O)[C@H]1CCc2cc(F)ccc2O1)[C@@H]1CCc2cc(F)ccc2O1` [l-nebivolol, reference compound]: in assay [1], the “Acute NO Release, Black Donors NO” value was found to be 192 ± 9 nM; the “Acute NO Release, White Donors NO” value is 268 ± 12 nM; the “Acute [NO]/[ONOO−] Release Ratio, Black Donors” value came out at 0.719; the “NO release after acute treatment (in words)” value (shortened to “NO release … (in words)”) was “marked improvement”. Further, the “Acute [NO]/[ONOO−] Release Ratio, White Donors” value in assay [1] is 1.202. Moreover, in assay [2], the “Acute ONOO− Release, Black Donors ONOO−” value amounted to 267 ± 13 nM and the “Acute ONOO− Release, White Donors ONOO−” value came to 223 ± 17 nM.

For `O=C(O)C1OC(OC(CNCC(O)C2CCc3cc(F)ccc3O2)C2CCc3cc(F)ccc3O2)C(O)C(O)C1O` [G-UDc, d-Nebivolol-11′-O-β-D-glucuronide], in assay [1], the “Acute NO Release, Black Donors NO” value was 129 ± 10 nM; the “Acute NO Release, White Donors NO” value worked out at 188 ± 12 nM; the “Acute [NO]/[ONOO−] Release Ratio, Black Donors” value is reported as 0.632; the “Acute [NO]/[ONOO−] Release Ratio, White Donors” value worked out at 1.133. Besides, in assay [2], the “Acute ONOO− Release, Black Donors ONOO−” value came out at 204 ± 13 nM and the “Acute ONOO− Release, White Donors ONOO−” value was found to be 166 ± 13 nM.

As to `O[C@H](CNC[C@@H](O)[C@H]1CCc2cc(F)ccc2O1)[C@@H]1CCc2cc(F)ccc2O1` [d-nebivolol, reference compound], in assay [1], the “Acute NO Release, Black Donors NO” value is on record as 87 ± 6 nM; the “Acute NO Release, White Donors NO” value was 127 ± 17 nM; the “Acute [NO]/[ONOO−] Release Ratio, Black Donors” value is 0.750; the “NO release … (in words)” value is listed as “marked improvement”. For the same compound, in assay [1], the “Acute [NO]/[ONOO−] Release Ratio, White Donors” value is 1.460. Besides, in assay [2], the “Acute ONOO− Release, Black Donors ONOO−” value was found to be 116 ± 6 nM and the “Acute ONOO− Release, White Donors ONOO−” value stood at 87 ± 6 nM.

As for `O=C(O)C1OC(OC(CNCC(O)C2CCc3cc(F)ccc3O2)C2CCc3cc(F)ccc3O2)C(O)C(O)C1O` (single isomer, unassigned) [G-UDd, l-Nebivolol-11′-O-β-D-glucuronide], in assay [1], the “Acute NO Release, Black Donors NO” value worked out at 117 ± 8 nM; the “Acute NO Release, White Donors NO” value is reported as 161 ± 11 nM; the “Acute [NO]/[ONOO−] Release Ratio, Black Donors” value was 0.606; the “Acute [NO]/[ONOO−] Release Ratio, White Donors” value was determined as 1.193. In assay [2], the “Acute ONOO− Release, Black Donors ONOO−” value was 193 ± 17 nM and the “Acute ONOO− Release, White Donors ONOO−” value is 135 ± 13 nM.

Take `O=C(O)C1OC(OC(CNCC(O)C2CCc3cc(F)ccc3O2)C2CCc3cc(F)ccc3O2)C(O)C(O)C1O` [G-UDa, d-Nebivolol-11-O-β-D-glucuronide]: in assay [1], the “Acute NO Release, Black Donors NO” value worked out at 144 ± 10 nM; the “Acute NO Release, White Donors NO” value came to 202 ± 12 nM; the “Acute [NO]/[ONOO−] Release Ratio, Black Donors” value is 0.605; the “Acute [NO]/[ONOO−] Release Ratio, White Donors” value is recorded as 1.122. In addition, in assay [2], the “Acute ONOO− Release, Black Donors ONOO−” value came to 238 ± 22 nM; the “Acute ONOO− Release, White Donors ONOO−” value came to 180 ± 16 nM; the “ONOO− (peroxynitrite) release (in words)” value is given as “greatest activity”.

Regarding `OC(CNCC(O)C1CCc2cc(F)ccc2O1)C1CCc2cc(F)ccc2O1` (racemic) [nebivolol, α,α′-[iminobismethylene]bis[6-fluoro-3,4-dihydro-2H-1-benzopyran-2-methanol]], in assay [1], the “Acute NO Release, Black Donors NO” value amounted to 148 ± 10 nM; the “Acute NO Release, White Donors NO” value was 218 ± 11 nM; the “Acute [NO]/[ONOO−] Release Ratio, Black Donors” value stood at 0.612; the “NO release … (in words)” value is “marked improvement”. In assay [1], the “Acute [NO]/[ONOO−] Release Ratio, White Donors” value is on record as 1.130. In addition, in assay [2], the “Acute ONOO− Release, Black Donors ONOO−” value came out at 242 ± 17 nM and the “Acute ONOO− Release, White Donors ONOO−” value came out at 193 ± 16 nM.
